# Measured values from paper PMC8536627, “Hydrolytic stability of anticancer drugs and one metabolite in the aquatic environment” (Environmental Science and Pollution Research International, 2021).
# “Also recorded” adds a separate entry of the source. Like-named read-outs stand apart in the source and are kept apart here.
# Assays:
# [1] = physchem; conditions: 5 days; for Degradation level in the preliminary test: dark
# Method: The incubation was performed in the dark, in order to avoid the influence of the photolysis on degradation of the analytes. The water used for the preparation of buffers was autoclaved, all glassware was clean, flushed with methanol, and dried in high temperature. Samples were closed in glass tubes with a sealed cap. The air from above the solution was removed by a nitrogen stream just before capping. In the preliminary test, solutions of single analytes were prepared in each tested pH: 4, 7, and 9, which is required by the OECD guidelines. There was also a blank sample prepared for each pH. Samples in the preliminary test were prepared in two parallel replicates. Moreover, the complete preliminary test was repeated twice. The preliminary test was performed at 50 °C for 5 days. […] In the case of the extended tests, 7 measuring points were provided during the time of the test. Each measuring point was performed in two parallel replicates. […] The test was conducted for 30 days or to 90 % elimination of a compound. Obtained results were used to determine the hydrolysis rate constant (k) using equation: 1 lnCt/C0=kt
# The HPLC-UV/Vis technique was applied to determine the level of hydrolytic degradation of the analytes. In the preliminary test, the control and blank samples were analyzed at the beginning and the end of the test. […] In the extended test, the samples collected in the time intervals were analyzed, and peak areas were compared to those obtained at the beginning of the test. This was used to determine the kinetic of this hydrolysis process by using the Equation 1. In general, each analyte was analyzed by a simple HPLC method with UV/Vis detection. Gemini C18 (Phenomenex, USA), 5 μm, 110 Å, 150 mm × 4.6 mm chromatographic column was applied for each method and three different mobile phases were used (water or 0.1 % HCOOH) mixed with the acetonitrile. The conditions applied during the LC-MS analysis with an ion trap detector for the qualitative analysis of the samples collected after the extended tests at 20 and 70 °C are presented in the Table S2.
# [2] = room temperature, ref Franquet-Griell et al. [2017], cited from earlier work
# [3] = physchem; type: physicochemical
# Method: Moreover, the complete preliminary test was repeated twice. […] Each measuring point was performed in two parallel replicates.
# where t, time; ct, c0, concentration of the analyte at a time (0 means the beginning of the test); k, rate constant.
# Based on this, the t1/2 was determined by using the equation: 2 t1/2=ln2/k
# where t1/2, half-life of the analyte; k, rate constant.
# The degradation was monitored for 30 days or until 90 % of a compound was degraded. Based on the obtained results (Fig. 4) the constant rates (k) and half-lives (t1/2) have been calculated (Table 1).
# After determining the hydrolysis rate constants it was possible to calculate activation energy (Ea) of this process at each pH, either from plotting ln k from T^−1 (Figure 5) when there were three k values obtained for each compound and pH (CP at pH 4, 7, and 9 as well as IF at pH 4) or from the following equation (for IF at pH 7 and 9, where only two k values were obtained) (Table 1): 4 E=Rlnk2−lnk1/1/T1¯−1/T2
# where R, gas constant (8.314 J/mol × K); k1, k2, rate constants for different temperatures; T, absolute temperature (K).
# [4] = dark conditions, 20 °C, ref Buerge et al. ([2006]); cited from earlier work
# [5] = 20 °C, ref Gilard et al. ([1994]), cited from earlier work
# [6] = physchem; type: physicochemical; conditions: for half-life: buffer, read-out: t½, extrapolated half-life (converted)
# Method: By obtaining at least two rate constants for two different temperatures, it is possible to calculate the rate constants and, in consequence, half-lives at other temperatures, according to the Arrhenius equation: 3 k=A×e^−E/R×Torlnk=−E/R×T+lnA
# Therefore, these equations were applied to extrapolate the obtained results and calculate the rate constants and half-lives of unstable anticancer drugs in more environmentally relevant temperatures (4, 10, or 15 °C), which are typical to natural waters.
# Additionally, these observations confirm that CP is much more vulnerable for hydrolysis than IF, which is interesting how two isomers (like CP and IF) may differently undergo hydrolysis process. […] If the conclusions were drawn only based on the results from the preliminary experiments (incubation at 50 °C for 5 days), it would be assumed that both compounds, especially CP, are very unstable. […] Moreover, using Equation 3, it was possible to extrapolate the results to determine the rate constants and half-lives at the temperatures 4, 10, and 15 °C, which are ordinary for environmental waters (Table 2).
# [7] = HPLC water with 4 % DMSO, ref Negreira et al. ([2013a]), cited from earlier work
# [8] = pH 7 and 8.1, 5 days, calculated; ref Booker et al. ([2014]); cited from earlier work
smiles,measurement,setting,value
"O=P1(N(CCCl)CCCl)NCCCO1 (stereo not shown) [CP, cyclophosphamide]",Hydrolytic stability in the preliminary test,"[1]; pH 4, 7 and 9, 50 °C",unstable; also recorded: susceptible to hydrolysis
same,Degradation level in the preliminary test,"[1]; pH 4, 50 °C",completely eliminated
same,Degradation level in the preliminary test,"[1]; pH 7, 50 °C",91.6%
same,Degradation level in the preliminary test,"[1]; pH 9, 50 °C",completely eliminated
same,Hydrolytic stability in milli-Q water,"[2]; milli-Q water, natural pH",stable
same,Stability during a 48-h test in pure water,"[2]; pure water, 48 h",stable
same,Degradation of initial amount in 30 days,"[3]; 20 °C, 30 days, pH not specified (pH 4, 7, 9 tested)",around 20%
same,half-life,"[3]; 20 °C, all pH, read-out: Half-life (converted)",~115000 min
same,"k, hydrolysis rate constant","[3]; 20 °C, pH 4",0.00035 h⁻¹
same,"k, hydrolysis rate constant","[3]; 20 °C, pH 7",0.00038 h⁻¹
same,"k, hydrolysis rate constant","[3]; 20 °C, pH 9",0.00037 h⁻¹
same,"k, hydrolysis rate constant","[3]; 50 °C, pH 4",0.025 h⁻¹
same,"k, hydrolysis rate constant","[3]; 50 °C, pH 7",0.024 h⁻¹
same,"k, hydrolysis rate constant","[3]; 50 °C, pH 9",0.024 h⁻¹
same,half-life,"[3]; 50 °C, range over three pH values, read-out: t½, half-life (converted)",1660 to 1760 min
same,"k, hydrolysis rate constant","[3]; 70 °C, pH 4",0.27 h⁻¹
same,"k, hydrolysis rate constant","[3]; 70 °C, pH 7",0.28 h⁻¹
same,"k, hydrolysis rate constant","[3]; 70 °C, pH 9",0.27 h⁻¹
same,half-life,"[3]; buffer, pH 4, 20 °C, pH 4, read-out: t½, half-life (converted)",118000 min
same,half-life,"[3]; buffer, pH 4, 50 °C, pH 4, read-out: t½, half-life (converted)",1660 min
same,half-life,"[3]; buffer, pH 4, 70 °C, pH 4, read-out: t½, half-life (converted)",156 min
same,half-life,"[3]; buffer, pH 4, 70 °C, range over pH 4, 7, 9, read-out: t½, half-life (converted)",150 to 156 min
same,half-life,"[3]; buffer, pH 7, 20 °C, pH 7, read-out: t½, half-life (converted)",112000 min
same,half-life,"[3]; buffer, pH 7, 50 °C, pH 7, read-out: t½, half-life (converted)",1760 min
same,half-life,"[3]; buffer, pH 7, 70 °C, pH 7, read-out: t½, half-life (converted)",150 min
same,half-life,"[3]; buffer, pH 9, 20 °C, pH 9, read-out: t½, half-life (converted)",114000 min
same,half-life,"[3]; buffer, pH 9, 50 °C, pH 9, read-out: t½, half-life (converted)",1730 min
same,half-life,"[3]; buffer, pH 9, 70 °C, pH 9, read-out: t½, half-life (converted)",150 min
same,"Ea, activation energy of hydrolysis",[3]; pH 4,111.2 kJ/mol
same,"Ea, activation energy of hydrolysis",[3]; pH 7,110.6 kJ/mol
same,"Ea, activation energy of hydrolysis",[3]; pH 9,110.5 kJ/mol
same,"Ea, activation energy of hydrolysis","[3]; range over pH 4, 7, 9",110.5 to 111.2 kJ/mol
same,Half-life in lake water,[4],around 80 days
same,Initial concentration present after 7 days,"[5]; pH 3.4–8.6, 7 days",over 95%
same,Maximum degradation after 17 days,"[5]; pH 3.4–8.6, 17 days",≤ 20%
same,"k, extrapolated rate constant","[6]; 4 °C, pH 4",5.1e-05 h⁻¹
same,"k, extrapolated rate constant","[6]; 4 °C, pH 7",5.3e-05 h⁻¹
same,"k, extrapolated rate constant","[6]; 4 °C, pH 9",5.3e-05 h⁻¹
same,"k, extrapolated rate constant","[6]; 10 °C, pH 4",7.1e-05 h⁻¹
same,"k, extrapolated rate constant","[6]; 10 °C, pH 7",7.4e-05 h⁻¹
same,"k, extrapolated rate constant","[6]; 10 °C, pH 9",7.3e-05 h⁻¹
same,"k, extrapolated rate constant","[6]; 15 °C, pH 4",0.000161 h⁻¹
same,"k, extrapolated rate constant","[6]; 15 °C, pH 7",0.000166 h⁻¹
same,"k, extrapolated rate constant","[6]; 15 °C, pH 9",0.000166 h⁻¹
same,half-life,"[6]; pH 4, 4 °C, pH 4",568 days
same,half-life,"[6]; pH 4, 10 °C, pH 4",406 days
same,half-life,"[6]; pH 4, 15 °C, pH 4",179 days
same,half-life,"[6]; pH 7, 4 °C, pH 7",549 days
same,half-life,"[6]; pH 7, 10 °C, pH 7",393 days
same,half-life,"[6]; pH 7, 15 °C, pH 7",174 days
same,half-life,"[6]; pH 9, 4 °C, pH 9",550 days
same,half-life,"[6]; pH 9, 10 °C, pH 9",394 days
same,half-life,"[6]; pH 9, 15 °C, pH 9",174 days
same,Stability in 24 h test,[7]; 4 °C,stable
same,Long-term stability at 4 °C,[7]; 4 °C,stable for 1 month
same,Stability in 24 h test,[7]; 15 °C,still stable
same,Stability in 24 h test,[7]; 25 °C,remained stable
same,Stability assessed with SPARC from molecular structure,[8],stable
